# What was measured:
# [1] = tested on: inflammatory markers (IL-17, IL-1β and IL-23) in IMQ-induced differentiated HaCaT cells; assay: In vitro IMQ-induced psoriatic model, inflammatory markers in conditioned media; assay type: cell-based; conditions: IMQ 100 μM, formulation in culture media 48 hr, mean ± S.D.
# From the text: This study was designed to investigate the effect of a Metf+SMR and Metf+SMR hydro-gel formulation on an IMQ-induced psoriasis-like mouse model. The composition of the hydrogel formulation prepared by using 1.5% crosslinked polyacrylic acid polymer and 1.5% triethanolamine is provided. In doing so, the Applicant expected to obtain supportive evidence of a role for the formulation in treating psoriasis. For that the Applicant has developed hydrogel-based formulations: 1. Metformin and 2. Metformin-silybin (Metf+SMR) 3. Metformin-curcumin (Metf+CMR) and studied invitro cell toxicity in A431 cells by MTT assay and invitro IMQ-induced psoriatic modal using HaCaT cells and determined the inflammatory markers (IL-1β, IL-23 and IL-17).
# To set up an efficient and consistent model for psoriasis in vitro, differentiated HaCaT cells were used to screen our test formulations. HaCaT cells were incubated with 2 mM calcium chloride (CaCl2) to achieve differentiation. Induction of psoriatic-like inflammation was achieved by treating the cells with Imiquimod (IMQ) ([…]). The differentiation and inflammation were confirmed by microscopic images. After inflammation, the cells were treated with different formulation dissolved in culture media and incubated for 48 hr. Clobetasol cream formulation was used as a positive control. After incubation, the conditioned media was collected and used for estimation of inflammatory markers (IL-17, IL-1β and IL-23).
# [2] = tested on: IMQ-induced psoriasis model in C57BL/6 Mice; assay: IMQ induced psoriatic plaque model, topical hydrogel treatment; assay type: in vivo
# Procedure: Hair was shaved along the back of the anesthetized mouse from shoulder to hip by using electric clippers or depilatory cream. Psoriasis-like lesions were induced by a daily topical application of a commercially available IMQ cream (62.5 mg/day for 5 days D1-D5) on the shaved back skin of C57BL/6 mice.
# Animals were randomly assigned to the different groups after reaching a maximum score of 4 with respect to erythema, scale, and thickness. Animals that didn't score 4 were excluded from the experiment. Sham psoriasis animals were administered with Vaseline cream; IMQ animals, were only challenged with imiquimod cream, and IMQ animals were treated with a hydrogel that was topically applied using a nylon mesh for even distribution of the hydrogel, for the whole duration of the experiment.
# To score the severity of inflammation of the back skin, an objective scoring system was developed based on the clinical Psoriasis Area and severity index (PASI), except that for the mouse model the affected skin area is not taken into account in the overall score. Erythema, scaling, and thickening was scored independently on a scale from 0 to 4:0, none; 1, slight; 2, moderate; 3, marked; 4, very marked. The level of erythema was scored using a scoring table with red taints. The cumulative score (erythema plus scaling plus thickening) served as a measure of the severity of inflammation (scale 0-12).
# • 0: None; 1: Slight; 2: Moderate; 3: Marked; 4: Very Marked.
# One of the important characteristic feature of psoriasis and the psoriasis-like skin inflammation was abnormal increase of epidermal skin thickness which was measured by vernier calipers.
# The IMQ induced, skin tissue sections (H&E stain) were collected after ten days (D1-D10) from all groups.
structure (smiles),measurement,setting,value
"CC(C)Cn1cnc2c(N)nc3ccccc3c21 [IMQ, Imiquimod]","IL-1β (pg/mL), mean concentration",[1],93.63 ± 2.87 pg/mL
same,"IL-17 (pg/mL), mean concentration",[1],99.82 ± 3.03 pg/mL
same,"IL-23 (pg/mL), mean concentration",[1],98.73 ± 3.27 pg/mL
same,epidermal skin thickness with IMQ only,"[2]; increased from 1.15 mm, IMQ only applied topically",2.22 mm
same,cumulative score on day 5,"[2]; scale 0-12, day 5, IMQ only",12
same,cumulative score (erythema+scaling+skin thickness) on day 10,"[2]; scale 0-12, day 10",12
same,spleen size (spleen index),[2]; treatment D6-D10,15 mg/g

# Reference: US20260256734A1, “COMPOSITIONS COMPRISING SILYMARIN (OR) CURCUMIN AND METFORMIN, METHODS AND APPLICATIONS THEREOF” (ACUBIOSYS PRIVATE LIMITED, priority 2022, published 2026)
